We go through two molecules from patent US4312870A, “Pyrazoloquinolines” (Ciba-Geigy Corporation, priority 1980, dated 1982).

This assay concerns the target Diazepam Receptor. Briefly: Diazepam Receptor Binding Assay in vitro (tritiated diazepam, rat fore-brain membranes). The settings on record: membranes from rat fore-brain, 0°-5°, pH=7.5, determined graphically; read-out: IC50, concentration required to inhibit the specific binding of 2 nM of tritiated diazepam by 50%. The method, then: The anxiolytic effects of said new compounds can also be estimated by the Diazepam Receptor Binding Assay in vitro, e.g. as described in Nature 266, 732 (1977) or Proc. Nat. Acad. Sci. USA 74, 3805 (1977). Diazepam binds specifically and with high affinity to crude synaptosomal membrane preparations from rat fore-brain. […] When tritiated diazepam is used, the interaction of other drugs with said receptor can be readily assessed thus: Membranes from rat fore-brain are incubated at 0°-5° with tritiated diazepam and various concentrations of the test substances in a physiological medium at the pH=7.5. The membranes, containing the receptors with various amounts of tritiated diazepam, are filtered onto glass fiber filters, which are then […] in a liquid scintillation counter.

pIC50: −log10 of the molar value.

On to `CN1C(=O)CN=C(c2ccccc2)c2cc(Cl)ccc21` [diazepam], for which the pIC50 was 8.30.
To `CNC1=Nc2ccc(Cl)cc2C(c2ccccc2)=[N+]([O-])C1` [chlordiazepoxide] belongs 6.40.
